Assay results reported in patent US10787442B2, “Modulators of indoleamine 2,3-dioxygenase” (GLAXOSMITHKLINE INTELLECTUAL PROPERTY DEVELOPMENT LIMITED, priority 2016, dated 2020).
Like-named read-outs stand apart in the source and are kept apart here.

Tests used:
[1] = molecular target: indoleamine 2, 3-dioxygenase (IDO1) (Homo sapiens, UniProt P14902); assay: IDO1 HeLa RapidFire MS Assay (kynurenine by mass spectrometry); type: cell-based; settings: HeLa cells stimulated with IFN-γ, 2 days; recorded as pIC50; read-out: IDO1 HeLa PXC50 (converted)
Description: IDO1 HeLa RapidFire MS Assay
(§1) Compounds of the present invention were tested via high-throughput cellular assays utilizing detection of kynurenine via mass spectrometry and cytotoxicity as end-points. […] Compounds with IDO1 inhibitory properties decreased the amount of kynurenine produced by the cells via the tryptophan catabolic pathway. Cellular toxicity due to the effect of compound treatment was measured using CellTiter-Glo® reagent (CTG) (Promega Corporation, Madison, Wis.), which is based on luminescent detection of ATP, an indicator of metabolically active cells.
(§2) In preparation for the assays, test compounds were serially diluted 3-fold in DMSO from a typical top concentration of 1 mM or 5 mM and plated at 0.5 μL in 384-well, polystyrene, clear bottom, tissue culture treated plates with lids (Greiner Bio-One, Kremsmünster, Austria) to generate 11-point dose response curves. Low control wells (0% kynurenine or 100% cytotoxicity) contained either 0.5 μL of DMSO in the presence of unstimulated (−IFN-γ) HeLa cells for the mass spectrometry assay or 0.5 μL of DMSO in the absence of cells for the cytotoxicity assay, and high control wells (100% kynurenine or 0% cytotoxicity) contained 0.5 μL of DMSO in the presence of stimulated (+IFN-γ) HeLa cells for both the mass spectrometry and cytotoxicity assays.
(§3) Frozen stocks of HeLa cells were washed and recovered in DMEM high glucose medium with HEPES (Thermo Fisher Scientific, Inc., Waltham, Mass.) supplemented with 10% v/v certified fetal bovine serum (FBS) (Thermo Fisher Scientific, Inc., Waltham, Mass.), and 1× penicillin-streptomycin antibiotic solution (Thermo Fisher Scientific, Inc., Waltham, Mass.). The cells were diluted to 100,000 cells/mL in the supplemented DMEM medium. 50 μL of either the cell suspension, for the mass spectrometry assay, or medium alone, for the cytotoxicity assay, were added to the low control wells, on the previously prepared 384-well compound plates, resulting in 5,000 cells/well or 0 cells/well respectively. IFN-γ was added to the remaining cell suspension at a final concentration of 10 nM, and 50 μL of the stimulated cells were added to all remaining wells on the 384-well compound plates. The plates, with lids, were then placed in a 37° C., 5% CO2 humidified incubator for 2 days.
(§4) Following incubation, the 384-well plates were removed from the incubator and allowed to equilibrate to room temperature for 30 minutes. For the cytotoxicity assay, CellTiter-Glo® was prepared according to the manufacturer's instructions, and 10 μL were added to each plate well. After a twenty minute incubation at room temperature, luminescence was read on an EnVision® Multilabel Reader (PerkinElmer Inc., Waltham, Mass.). For the mass spectrometry assay, 10 μL of supernatant from each well of the compound-treated plates were added to 40 μL of acetonitrile, containing 10 μM of an internal standard for normalization, in 384-well, polypropylene, V-bottom plates (Greiner Bio-One, Kremsmünster, Austria) to extract the organic analytes. Following centrifugation at 2000 rpm for 10 minutes, 10 μL from each well of the acetonitrile extraction plates were added to 90 μL of sterile, distilled H2O in 384-well, polypropylene, V-bottom plates for analysis of kynurenine and the internal standard on the RapidFire 300 (Agilent Technologies, Santa Clara, Calif.) and 4000 QTRAP MS (SCIEX, Framingham, Mass.). MS data were integrated using Agilent Technologies' RapidFire Integrator software, and data were normalized for analysis as a ratio of kynurenine to the internal standard.

[2] = system: human peripheral blood mononuclear cells (PBMC); assay: PBMC cytotoxicity assay (CellTiter-Glo); type: cell-based; settings: cytotoxicity in stimulated PBMC, recorded as pCC50
[3] = system: human epithelial HeLa cells; assay: HeLa cytotoxicity assay (CellTiter-Glo); type: cell-based; settings: cytotoxicity in stimulated HeLa cells, recorded as pCC50
Description: as §1, §2, §3, §4

ePL tagged IDO1 = molecular target: T1, ePL tagged IDO1 (Homo sapiens, UniProt P14902); assay: CETSA (Cellular Thermal Shifting assay); type: binding; settings: Hela cells, 3 hours at 37° C., heated at 53° C. for 3 min
T1 construct: expressed in transfected cells; host or cells: HeLa cells transduced with BacMam virus
Description: Cellular Thermal Shifting assays were used to directly monitor the ligand binding to target proteins in cells. Hela cells were transduced with BacMam virus expressing ePL tagged IDO1 overnight. The cells were then plated over the compounds for 3 hours at 37° C. in cell culture medium containing 1% FBS. The plates were then sealed and heated at 53° C. for 3 min. InCell Hunter reagents were added and luminescence was read in 90 min.

PAN02 pancreatic cells = settings: cited from earlier work
[4] = first value, read-out: pXC50_1 (converted)
[5] = second value, read-out: pXC50_2 (converted)

Chain of indoleamine 2, 3-dioxygenase (IDO1) (P14902 whole entry): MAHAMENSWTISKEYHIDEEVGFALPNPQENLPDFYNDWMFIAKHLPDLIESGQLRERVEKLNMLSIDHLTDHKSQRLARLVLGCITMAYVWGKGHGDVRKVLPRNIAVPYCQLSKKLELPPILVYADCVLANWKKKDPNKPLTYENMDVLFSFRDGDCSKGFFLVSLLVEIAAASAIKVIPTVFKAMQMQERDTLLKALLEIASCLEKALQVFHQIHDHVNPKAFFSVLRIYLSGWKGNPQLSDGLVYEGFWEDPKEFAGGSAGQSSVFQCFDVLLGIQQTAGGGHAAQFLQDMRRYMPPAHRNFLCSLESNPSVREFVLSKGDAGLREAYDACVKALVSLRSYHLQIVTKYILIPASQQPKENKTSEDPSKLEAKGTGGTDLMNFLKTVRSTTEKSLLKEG
T1 sequence (P14902 whole entry): as above

IC50 [1] | EC50 (ePL tagged IDO1; [4]) | EC50 (ePL tagged IDO1; [5]) | SMILES | PBMC_TOX PXC50 [2] | HELA_IDO1_TOX_PXC50 [3] | effect against the same tumor (PAN02 pancreatic cells; immune-deficient mice) | inhibition of tumor growth (PAN02 pancreatic cells; immunocompetent mice, orally dosed)
10 nM | – | – | C[C@H](CC(=O)O)c1cnc(N(CCCCCN)C2CCOCC2)c(Nc2ccc(Cl)cn2)c1 [Example 83, (3R)-3-{6-[(5-aminopentyl)(oxan-4-yl)amino]-5-[(5-chloropyridin-2-yl)amino]pyridin-3-yl}butanoic acid] | <5.0 | <5 | – | –
316 nM | – | – | CC(C)CN(c1ncc(C(C)CC(=O)O)cc1Nc1nc(Cl)ns1)C1CCOCC1 (stereo not shown) [Example 34, 3-{5-[(3-chloro-1,2,4-thiadiazol-5-yl)amino]-6-[(2-methylpropyl)(oxan-4-yl)amino]pyridin-3-yl}butanoic acid] | <5.0 | <5 | – | –
20 nM | – | – | CC(C)CN(c1ncc(C(C)CC(=O)O)cc1Nc1ccc(C#N)cn1)C1CCOCC1 (stereo not shown) [Example 33, 3-{5-[(5-cyanopyridin-2-yl)amino]-6-[(2-methylpropyl)(oxan-4-yl)amino]pyridin-3-yl}butanoic acid] | <5.0 | <5 | – | –
10 nM | – | – | C[C@H](CC(=O)O)c1cnc(N(CCCCCNC(=O)OC2CC/C=C/CCC2)C2CCOCC2)c(Nc2ccc(Cl)cn2)c1 (stereo partly drawn) [Example 84, (3R)-3-{5-[(5-chloropyridin-2-yl)amino]-6-{[5-({[(4E)-cyclooct-4-en-1-yloxy]carbonyl}amino)pentyl](oxan-4-yl)amino}pyridin-3-yl}butanoic acid] | <5.0 | <5 | – | –
10 nM | – | – | CC(C)CN(c1ncc(C(C)CC(=O)O)cc1Nc1ccc(C(F)(F)F)cn1)C1CCOCC1 (stereo not shown) [Example 2, 3-(6-(isobutyl(tetrahydro-2H-pyran-4-yl)amino)-5-((5-(trifluoromethyl)pyridin-2-yl)amino)pyridin-3-yl)butanoic acid] | <5.0 | <5 | – | –
39.8 nM | – | – | CC(C)CN(c1ncc([C@H](C)CC(=O)O)cc1Nc1nc(Cl)ns1)C1CCC(F)(F)CC1 [Example 30, (R)-3-(5-((3-chloro-1,2,4-thiadiazol-5-yl)amino)-6-((4,4-difluorocyclohexyl)(isobutyl)amino)pyridin-3-yl)butanoic acid] | <5.0 | <5 | – | –
15.8 nM | – | – | CC(C)CN(c1ncc([C@H](C)CC(=O)O)cc1Nc1cnc(Cl)nc1)C1CCOCC1 [Example 5, (R)-3-(5-((2-chloropyrimidin-5-yl)amino)-6-(isobutyl(tetrahydro-2H-pyran-4-yl)amino)pyridin-3-yl)butanoic acid] | <5.0 | <5 | – | –
12.6 nM | – | – | CC(C)CN(c1ncc([C@H](C)CC(=O)O)cc1Nc1ccc(Cl)c(F)n1)C1CCOCC1 [Example 7, (R)-3-(5-((5-chloro-6-fluoropyridin-2-yl)amino)-6-(isobutyl(tetrahydro-2H-pyran-4-yl)amino)pyridin-3-yl)butanoic acid] | <5.0 | <5 | – | –

The next lines start with the molecule.

SMILES | IC50 [1] | EC50 (ePL tagged IDO1; [4]) | EC50 (ePL tagged IDO1; [5]) | PBMC_TOX PXC50 [2] | HELA_IDO1_TOX_PXC50 [3] | effect against the same tumor (PAN02 pancreatic cells; immune-deficient mice) | inhibition of tumor growth (PAN02 pancreatic cells; immunocompetent mice, orally dosed)
CC(C)CN(c1ncc(C(C)CC(=O)O)cc1Nc1nc(C(F)(F)F)ns1)C1CCOCC1 (stereo not shown) [Example 31, 3-{6-[(2-methylpropyl)(oxan-4-yl)amino]-5-{[3-(trifluoromethyl)-1,2,4-thiadiazol-5-yl]amino}pyridin-3-yl}butanoic acid] | 5.01 nM | – | – | <5.0 | <5 | – | –
CC(C)CN(CC(C)C)c1ncc(C(C)CC(=O)O)cc1Nc1nc(Cl)ns1 (stereo not shown) [Example 32, 3-{6-[bis(2-methylpropyl)amino]-5-[(3-chloro-1,2,4-thiadiazol-5-yl)amino]pyridin-3-yl}butanoic acid] | 631 nM | – | – | <5.0 | <5 | – | –
CC(C)CN(c1ncc([C@H](C)CC(=O)O)cc1Nc1ccc(C#N)cn1)C1CCOCC1 [Example 57, (3R)-3-{5-[(5-cyanopyridin-2-yl)amino]-6-[(2-methylpropyl)(oxan-4-yl)amino]pyridin-3-yl}butanoic acid] | – | 5010 nM | 3090 nM | <5.0 | – | – | –
CC(C)CN(CC(C)C)c1ncc([C@H](C)CC(=O)O)cc1Nc1nc(C(F)(F)F)ns1 [Example 40, (3R)-3-{6-[bis(2-methylpropyl)amino]-5-{[3-(trifluoromethyl)-1,2,4-thiadiazol-5-yl]amino}pyridin-3-yl}butanoic acid] | 7.94 nM | – | – | <5.6 | <5 | – | –
CC(C)CN(c1ncc(C(C)CC(=O)O)cc1Nc1ccc(Cl)cn1)C1CCOCC1 (stereo not shown) [Example 35, 3-{5-[(5-chloropyridin-2-yl)amino]-6-[(2-methylpropyl)(oxan-4-yl)amino]pyridin-3-yl}butanoic acid] | 7.94 nM | – | – | <5.0 | <5 | – | –
CC(C)CN(c1ncc([C@H](C)CC(=O)O)cc1Nc1nc(C(F)(F)F)ns1)C1CCOCC1 [Example 3, (R)-3-(6-(isobutyl(tetrahydro-2H-pyran-4-yl)amino)-5-((3-(trifluoromethyl)-1,2,4-thiadiazol-5-yl)amino)pyridin-3-yl)butanoic acid] | 10 nM | 162 nM | 186 nM | <5.0 | <5 | – | –
NS(=O)(=O)NCCNc1nonc1C(=NO)Nc1ccc(F)c(Br)c1 [INCB204360] | – | – | – | – | – | without effect | significant dose-dependent inhibition of tumor growth
CC(C)CN(c1ncc([C@H](C)CC(=O)O)cc1Nc1ccc(Cl)nc1)C1CCOCC1 [Example 4, (R)-3-(5-((6-chloropyridin-3-yl)amino)-6-(isobutyl(tetrahydro-2H-pyran-4-yl)amino)pyridin-3-yl)butanoic acid] | 10 nM | – | – | <5.0 | <5 | – | –
CC(C)CN(c1ncc([C@H](C)CC(=O)O)cc1Nc1nc(C(F)(F)F)ns1)C1CC(F)(F)C1 [Example 20, (R)-3-(6-((3,3-difluorocyclobutyl)(isobutyl)amino)-5-((3-(trifluoromethyl)-1,2,4-thiadiazol-5-yl)amino)pyridin-3-yl)butanoic acid] | 12.6 nM | – | – | <5.0 | <5 | – | –
CC(C)CN(CC(C)C)c1ncc(C(C)CC(=O)O)cc1Nc1nc(C(F)(F)F)ns1 (stereo not shown) [Example 1, 3-(6-(diisobutylamino)-5-((3-(trifluoromethyl)-1,2,4-thiadiazol-5-yl)amino)pyridin-3-yl)butanoic acid] | 10 nM | – | – | <5.0 | <5 | – | –
